The assay deals with L1210 leukemia ip in BDF1 mice, survival T/C. The assay is described as follows: NCI In Vivo Anticancer Drug Screen. Data for tumor model L1210 Leukemia (intraperitoneal) in B6D2F1 (BDF1) mice. The note with it: endpoint: mean survival time, higher = longer survival. In short, it runs like this: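 Mice bearing the transplanted tumor received compound or vehicle. Survival of the treated group was divided by that of the vehicle-treated control group to give the ratio.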

[1] abbreviates: dose: 100.0 mg/kg/injection, schedule: Q01DX009 (ip), vehicle: saline.
The mark [2] stands for this setting: dose: 100.0 mg/kg/injection, schedule: Q04DX003 (ip), vehicle: saline.
Setting [3] is: dose: 200.0 mg/kg/injection, schedule: Q01DX009 (ip), vehicle: saline.
Setting [4] is: dose: 200.0 mg/kg/injection, schedule: Q04DX003 (ip), vehicle: saline.
The mark [5] stands for this setting: dose: 400.0 mg/kg/injection, schedule: Q01DX009 (ip), vehicle: saline.
The mark [6] stands for this setting: dose: 400.0 mg/kg/injection, schedule: Q04DX003 (ip), vehicle: saline.
The mark [7] stands for this setting: dose: 100.0 mg/kg/injection, schedule: Q01DX001 (ip), vehicle: saline.
[8] abbreviates: dose: 100.0 mg/kg/injection, schedule: Q04DX003 (ip), vehicle: Klucel (hydroxypropylcellulose) (HPC).
The mark [9] stands for this setting: dose: 200.0 mg/kg/injection, schedule: Q04DX003 (ip), vehicle: Klucel (hydroxypropylcellulose) (HPC).
[10] abbreviates: dose: 400.0 mg/kg/injection, schedule: Q04DX003 (ip), vehicle: Klucel (hydroxypropylcellulose) (HPC).
[11] abbreviates: dose: 50.0 mg/kg/injection, schedule: Q01DX009 (ip), vehicle: saline with Tween-80.
Setting [12] is: dose: 200.0 mg/kg/injection, schedule: Q01DX001 (ip), vehicle: saline.
Where [13] appears, read: dose: 400.0 mg/kg/injection, schedule: Q01DX001 (ip), vehicle: saline.
Setting [14] is: dose: 100.0 mg/kg/injection, schedule: Q01DX009 (ip), vehicle: Klucel (hydroxypropylcellulose) (HPC).
Where [15] appears, read: dose: 200.0 mg/kg/injection, schedule: Q01DX009 (ip), vehicle: Klucel (hydroxypropylcellulose) (HPC).

Among the data in PubChem BioAssay AID248 (DTP/NCI, 2004) are T/C values, retold here.

“And” between values parts separate entries of the source, which are not always exact repeats. Identical values can stand only once. Toxic doses and inconclusive results are not listed.

For the compound `O=S(=O)(O)CCN1CCN(CCO)CC1`, the T/C was 96 % of control under setting [1]; 95 % of control under setting [2]; 91 % of control under setting [3]; 101 % of control under setting [4]; 98 % of control under setting [5]; 97 % of control under setting [6].
On to `O=C(NC(=S)c1ccc[nH]1)Nc1ccccc1`, for which the T/C runs as follows: (dose: 50.0 mg/kg/injection, schedule: Q01DX009 (ip), vehicle: saline) 93 % of control; under setting [1], 90 % of control; under setting [3], 90 % of control.
`NCCCCC(N)C(=O)NCCCCCCN(CCCCCCNC(=O)C(N)CCCCN)C(=O)C(N)CCCCN` (stereo not drawn): under setting [7], the T/C is 92 % of control.
As to `CC(C)(CCC(=S)N1CCOCC1)c1ccccc1`, the T/C reads like this: under setting [8], 101 % of control; under setting [9], 102 % of control; under setting [10], 102 % of control.
As for `Cc1ccc(S(=O)(=O)N(C)c2ccccc2C(=O)O)cc1`, the T/C is 104 % of control under setting [8], 97 % of control under setting [9] and 95 % of control under setting [10].
On to `CCOC(=O)CCOc1ccccc1N(CCCl)CCCl`, for which the T/C by setting is: (dose: 1.2 mg/kg/injection, schedule: Q01DX Z (ip), vehicle: methylcellulose (MC)) 110 % of control and 121 % of control; (dose: 2.4 mg/kg/injection, schedule: Q01DX Z (ip), vehicle: methylcellulose (MC)) 110 % of control and 113 % of control; (dose: 3.13 mg/kg/injection, schedule: Q01DX009 (ip), vehicle: other) 115 % of control; (dose: 4.7 mg/kg/injection, schedule: Q01DX Z (ip), vehicle: methylcellulose (MC)) 108 % of control and 111 % of control; (dose: 6.2 mg/kg/injection, schedule: Q01DX001 (ip), vehicle: carboxymethylcellulose (CMC)) 109 % of control; (dose: 8.7 mg/kg/injection, schedule: Q01DX Z (ip), vehicle: methylcellulose (MC)) 178 % of control. Moreover, the T/C reads like this: (dose: 9.4 mg/kg/injection, schedule: Q01DX Z (ip), vehicle: methylcellulose (MC)) 100 % of control and 120 % of control; (dose: 12.5 mg/kg/injection, schedule: Q04DX003 (ip), vehicle: other) 106 % of control; (dose: 13.0 mg/kg/injection, schedule: Q01DX Z (ip), vehicle: methylcellulose (MC)) 161 % of control; (dose: 22.0 mg/kg/injection, schedule: Q01DX001 (ip), vehicle: carboxymethylcellulose (CMC)) 109 % of control; (dose: 25.0 mg/kg/injection, schedule: Q01DX001 (ip), vehicle: carboxymethylcellulose (CMC)) 124 % of control; (dose: 25.0 mg/kg/injection, schedule: Q01DX009 (ip), vehicle: saline sonified) 110 % of control. The T/C was 106 % of control (dose: 25.0 mg/kg/injection, schedule: Q04DX003 (ip), vehicle: other); 109 % of control (dose: 33.0 mg/kg/injection, schedule: Q01DX001 (ip), vehicle: carboxymethylcellulose (CMC)); 201 % of control (dose: 44.0 mg/kg/injection, schedule: Q01DX Z (ip), vehicle: methylcellulose (MC)); 114 % of control (dose: 50.0 mg/kg/injection, schedule: Q01DX009 (ip), vehicle: saline sonified); 162 % of control under setting [11]; 159 % of control (dose: 66.0 mg/kg/injection, schedule: Q01DX Z (ip), vehicle: methylcellulose (MC)). In addition, the T/C by setting is: (dose: 75.0 mg/kg/injection, schedule: Q01DX001 (ip), vehicle: carboxymethylcellulose (CMC)) 112 % of control; (dose: 75.0 mg/kg/injection, schedule: Q01DX Z (ip), vehicle: methylcellulose (MC)) 86 % of control; (dose: 100.0 mg/kg/injection, schedule: Q01DX Z (ip), vehicle: methylcellulose (MC)) 109 % of control; under setting [8], 90 % of control.
In the case of `CCCOP(=S)(N1CC1)N1CC1`, where the note is “dose: 44.0 mg/kg/injection, schedule: Q01DX001 (ip), vehicle: saline”, the T/C is 114 % of control.
Take `S=C(N=Nc1ccccc1)NNc1ccccc1`: the T/C is 90 % of control (dose: 18.8 mg/kg/injection, schedule: Q04DX003 (ip), vehicle: saline with Tween-80); 87 % of control (dose: 18.9 mg/kg/injection, schedule: Q01DX009 (ip), vehicle: saline with Tween-80); 92 % of control (dose: 30.0 mg/kg/injection, schedule: Q01DX Z (ip), vehicle: carboxymethylcellulose (CMC)); 92 % of control (dose: 37.5 mg/kg/injection, schedule: Q01DX009 (ip), vehicle: saline with Tween-80); 97 % of control (dose: 37.5 mg/kg/injection, schedule: Q01DX Z (ip), vehicle: carboxymethylcellulose (CMC)); 87 % of control (dose: 37.5 mg/kg/injection, schedule: Q04DX003 (ip), vehicle: saline with Tween-80). Also, the T/C is 97 % of control (dose: 45.0 mg/kg/injection, schedule: Q01DX Z (ip), vehicle: carboxymethylcellulose (CMC)); 90 % of control (dose: 75.0 mg/kg/injection, schedule: Q01DX009 (ip), vehicle: saline with Tween-80); 92 % of control (dose: 75.0 mg/kg/injection, schedule: Q01DX Z (ip), vehicle: carboxymethylcellulose (CMC)); 92 % of control (dose: 75.0 mg/kg/injection, schedule: Q04DX003 (ip), vehicle: saline with Tween-80); 88 % of control (dose: 150.0 mg/kg/injection, schedule: Q04DX003 (ip), vehicle: saline with Tween-80); 101 % of control (dose: 200.0 mg/kg/injection, schedule: Q01DX001 (ip), vehicle: carboxymethylcellulose (CMC)).
Regarding `C(=N\N1CCN(/N=C/c2c[nH]c3ccccc23)CC1)/c1c[nH]c2ccccc12`, the T/C was 94 % of control under setting [7], 94 % of control under setting [12] and 94 % of control under setting [13].
In the case of `Cc1ccc(S(=O)(=O)N(C)C)cc1N`, the T/C by setting is: under setting [11], 105 % of control; (dose: 100.0 mg/kg/injection, schedule: Q01DX009 (ip), vehicle: saline with Tween-80) 98 % of control; (dose: 100.0 mg/kg/injection, schedule: Q04DX003 (ip), vehicle: saline with Tween-80) 107 % of control; (dose: 200.0 mg/kg/injection, schedule: Q01DX009 (ip), vehicle: saline with Tween-80) 96 % of control; (dose: 200.0 mg/kg/injection, schedule: Q04DX003 (ip), vehicle: saline with Tween-80) 97 % of control; (dose: 400.0 mg/kg/injection, schedule: Q04DX003 (ip), vehicle: saline with Tween-80) 102 % of control.
On to `CC(C)P(=O)(OCc1ccccc1)C(C)C`, for which the T/C reads like this: under setting [14], 97 % of control; under setting [15], 94 % of control; (dose: 400.0 mg/kg/injection, schedule: Q01DX009 (ip), vehicle: Klucel (hydroxypropylcellulose) (HPC)) 89 % of control.
In the case of `Cc1ccc(C(C)C)c(OCC(O)CN2CC=CCC2)c1` (stereo not drawn), the T/C by setting is: (dose: 25.0 mg/kg/injection, schedule: Q04DX003 (ip), vehicle: saline) 100 % of control; (dose: 50.0 mg/kg/injection, schedule: Q04DX003 (ip), vehicle: saline) 112 % of control; under setting [2], 99 % of control and 109 % of control.
For `CCc1cc(CC)c(CC)c(CC)c1`, the T/C under setting [1] was 100 % of control; the T/C under setting [2] is 107 % of control; the T/C under setting [3] is 87 % of control; the T/C under setting [4] was 105 % of control; the T/C under setting [5] is 108 % of control; the T/C under setting [6] is 91 % of control.
Turning to `CCC(C)N=[N+]([O-])CC` (stereo not drawn), the T/C is, setting by setting: (dose: 100.0 mg/kg/injection, schedule: Q01DX001 (ip), vehicle: acetone) 101 % of control; (dose: 200.0 mg/kg/injection, schedule: Q01DX001 (ip), vehicle: acetone) 112 % of control; (dose: 400.0 mg/kg/injection, schedule: Q01DX001 (ip), vehicle: acetone) 91 % of control.
On to `CCCCC(CC)CC1CCCCC1O` (stereo not drawn), for which the T/C under setting [14] was 95 % of control; the T/C under setting [8] is 97 % of control; the T/C under setting [15] was 93 % of control; the T/C under setting [9] was 96 % of control; the T/C under setting [10] was 96 % of control.
For the compound `CCC/C=C(\C)CCCC`, the T/C runs as follows: under setting [7], 97 % of control; under setting [12], 99 % of control; under setting [13], 95 % of control.
